For four compounds, IC50 results are on record in patent publication US20080200448A1, “New Pyridine Analogues VIII 518” (ASTRAZENECA AB, priority 2007, published 2008).

In the experiment the target is T1, P2Y12 receptor (Homo sapiens, UniProt Q9H244).
T1 construct: expressed in transfected cells; host or cells: CHO cells (membrane preparation)
T1 sequence (Q9H244 whole entry): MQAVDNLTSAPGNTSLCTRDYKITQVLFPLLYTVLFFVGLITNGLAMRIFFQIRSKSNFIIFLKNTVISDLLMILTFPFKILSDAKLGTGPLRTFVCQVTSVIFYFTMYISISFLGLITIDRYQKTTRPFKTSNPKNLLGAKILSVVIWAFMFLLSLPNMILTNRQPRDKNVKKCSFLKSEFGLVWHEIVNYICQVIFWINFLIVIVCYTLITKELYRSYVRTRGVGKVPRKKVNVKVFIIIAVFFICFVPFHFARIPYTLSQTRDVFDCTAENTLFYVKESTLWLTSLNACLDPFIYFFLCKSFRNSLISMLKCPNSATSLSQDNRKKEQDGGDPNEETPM
Briefly: Functional inhibition of 2-Me-S-ADP induced P2Y12 signalling (35S-GTPγS binding, cell membranes). The format is biochemical. Conditions: 35S-GTPγS assay, membranes, EC80 concentration of 2-methyl-thio-adenosine diphosphate, 30° C. for 45 min; read-out: GTPγS (IC50 μM). Put shortly:
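Membranes (5 μg) from P2Y12-transfected CHO cells in pH 7.4 HEPES buffer with 10 μM GDP and saponin were stimulated with an EC80 of 2-methyl-thio-ADP plus compound and ^35S-GTPγS for 45 min at 30° C. Filter-retained ^35S-GTPγS was counted, normalised between agonist and no-agonist activity, and IC50 taken from a four-parameter fit.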
The IC50 is the concentration that inhibits the measured activity by half. On to `CCOC(=O)c1cc(F)c(N2CCC(C(=O)NS(=O)(=O)Cc3ccccc3)CC2)nc1CN1CCCC1=O` [Example 127, Ethyl 6-{4-[(benzylsulfonyl)carbamoyl]piperidin-1-yl}-5-fluoro-2-[(2-oxopyrrolidin-1-yl)methyl]nicotinate], for which the IC50 was determined as 0.079 µM.
The figure for `CCOC(=O)c1cc(C#N)c(N2CCC(C(=O)N(C)S(=O)(=O)Cc3ccccc3)CC2)nc1CN1CCCCC1=O` [Example 128, Ethyl 6-{4-[(benzylsulfonyl)(methyl)carbamoyl]piperidin-1-yl}-5-cyano-2-[(2-oxopiperidin-1-yl)methyl]nicotinate] is 1.14 µM.
As to `COC(=O)c1cc(Cl)c(N2CCC(C(=O)NS(=O)(=O)Cc3ccccc3)CC2)nc1CN1CCCCC1=O` [Example 129, Methyl 6-{4-[(benzylsulfonyl)carbamoyl]piperidin-1-yl}-5-chloro-2-[(2-oxopiperidin-1-yl)methyl]nicotinate], the IC50 was determined as 1.58 µM.
The figure for `CCCOC(=O)c1cc(F)c(N2CCC(C(=O)NS(=O)(=O)Cc3ccccc3)CC2)nc1CN1CCCC1=O` [Example 130, Propyl 6-{4-[(benzylsulfonyl)carbamoyl]piperidin-1-yl}-5-fluoro-2-[(2-oxopyrrolidin-1-yl)methyl]nicotinate] is 0.122 µM.
